Columns and labels:
[1] = target: CYP3A4 (Homo sapiens, UniProt P08684); experiment: Cytochrome P450 (CYP450) Inhibition Assay, CYP3A4 (Vivid fluorescence, BOMCC substrate); details: human, P450 Baculosomes (recombinant CYP3A4), probe BOMCC (Vivid substrate)
[2] = tested on: sodium channel; experiment: Guanidine influx assay (14C-guanidine radiotracer flux, in vitro); format: cell-based, human or rat; details: guanidine influx assay using a known cell line that expresses a sodium channel
Outline: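 Sodium channel block is measured as reduced 14C-guanidine uptake in cells stably expressing human or rat channels, stimulated with aconitine. Potency is given as IC50 from a four-parameter curve.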

Chain of CYP3A4 (P08684 whole entry): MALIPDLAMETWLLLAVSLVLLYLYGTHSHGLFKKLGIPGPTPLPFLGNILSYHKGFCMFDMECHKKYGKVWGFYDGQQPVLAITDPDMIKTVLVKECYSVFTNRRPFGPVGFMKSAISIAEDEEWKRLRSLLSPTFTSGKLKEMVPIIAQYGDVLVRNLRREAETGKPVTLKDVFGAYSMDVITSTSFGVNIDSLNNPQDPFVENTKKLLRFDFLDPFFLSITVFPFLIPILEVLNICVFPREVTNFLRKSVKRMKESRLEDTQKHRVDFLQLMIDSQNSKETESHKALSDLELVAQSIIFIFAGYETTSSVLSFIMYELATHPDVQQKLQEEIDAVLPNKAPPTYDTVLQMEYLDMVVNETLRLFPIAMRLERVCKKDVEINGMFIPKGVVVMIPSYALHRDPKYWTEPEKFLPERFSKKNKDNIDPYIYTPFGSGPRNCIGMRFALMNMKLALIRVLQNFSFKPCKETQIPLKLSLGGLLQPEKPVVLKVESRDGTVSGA

| Structure (SMILES) | inhibition at 10 µM [1] [%] | melting point [°C] | IC50 [2] [nM] | IC50 ([2]; activity level class) [nM] |
| --- | --- | --- | --- | --- |
| Nc1noc2cc3c(cc12)C1(CO3)C(=O)N(Cc2ccccc2C(F)(F)F)c2ccccc21 (stereo not drawn) [Example 44.3, 3-amino-1′-[2-(trifluoromethyl)benzyl]spiro[furo[3,2-f][1,2]benzisoxazole-5,3′-indol]-2′(1′H)-one] | > 50 | 262 to 264 | 1000 to 10000 |  |
| O=C1Nc2cc3c(cc2C12COc1cc4c(cc12)CCO4)OCCO3 (stereo not drawn) [Example 3.28, 2′,3′,5,6-tetrahydrospiro[benzo[1,2-b:5,4-b′]difuran-3,8′-[1,4]dioxino[2,3-f]indol]-7′(6′H)-one] | > 50 | > 250 |  | 1000 to 10000 |
| O=C1N(C[C@H]2CCCO2)c2ccccc2C12COc1cc(O)ccc12 (stereo partly drawn) [Example 11.53, 6-hydroxy-1′-[(2R)-tetrahydrofuran-2-ylmethyl]spiro[1-benzofuran-3,3′-indol]-2′(1′H)-one] | < 50 | 72 to 74 | 100 to 1000 |  |
| O=C(Nc1cccc(F)c1)c1ccc(CN2C(=O)C3(COc4cc5c(cc43)CCO5)c3ccccc32)cc1 (stereo not drawn) [Example 12.36, N-(3-fluorophenyl)-4-[(2′-oxo-5,6-dihydrospiro[benzo[1,2-b:5,4-b′]difuran-3,3′-indol]-1′(2′H)-yl)methyl]benzamide] | < 50 | > 250 | 100 to 1000 |  |
| CN(C)c1ccc(-c2cccc3c2C2(COc4cc5c(cc42)OCO5)C(=O)N3Cc2ccc(Cl)s2)cn1 (stereo not drawn) [Example 16.12, 1′-[(5-chloro-2-thienyl)methyl]-4′-[6-(dimethylamino)pyridin-3-yl]spiro[furo[2,3-f][1,3]benzodioxole-7,3′-indol]-2′(1′H)-one] | > 50 | 215 to 218 | 100 to 1000 |  |
| Cc1cc2c(cc1C)C1(CO2)C(=O)N(Cc2ccccn2)c2ccccc21 (stereo not drawn) [Example 9.28, 5,6-dimethyl-1′-(pyridin-2-ylmethyl)spiro[1-benzofuran-3,3′-indol]-2′(1′H)-one] | < 50 | 165 to 168 |  | 100 to 1000 |
| Cc1cc2c(cc1C)C1(CO2)C(=O)Nc2ccccc21 (stereo not drawn) [Example 3.3, 5,6-dimethylspiro[1-benzofuran-3,3′-indol]-2′(1′H)-one] | > 50 | 206 to 207 |  | 100 to 1000 |
| O=C1N(Cc2ccc(N3CCOCC3)nc2)c2ccccc2C12COc1cc3c(cc12)OCCO3 (stereo not drawn) [Example 32, 1′-[(6-morpholin-4-ylpyridin-3-yl)methyl]-2,3-dihydrospiro[furo[2,3-g][1,4]benzodioxine-8,3′-indol]-2′(1′H)-one] | > 50 | 117 to 119 | 1 to 100 |  |
| O=C1N(Cc2ccccn2)c2ccccc2C12COc1c2ccc2c1OCCO2 (stereo not drawn) [Example 5.36, 1-(pyridin-2-ylmethyl)-2,3-dihydrospiro[furo[2,3-f][1,4]benzodioxine-7,3′-indol]-2′(1′H)-one] | < 50 | 205 to 206 |  | 100 to 1000 |
| N#Cc1cccnc1CN1C(=O)C2(COc3cc4c(cc32)OCCO4)c2ccccc21 (stereo not drawn) [Example 11.80] | < 50 | 230 to 233 | 1 to 100 |  |
| CN1CCOc2cc3c(cc21)OCC31C(=O)N(C[C@H]2CCCO2)c2ccccc21 (stereo partly drawn) [Example 2.30, 4-methyl-1′-[(2R)-tetrahydrofuran-2-ylmethyl]-3,4-dihydro-2H-spiro[furo[2,3-g][1,4]benzoxazine-8,3′-indol]-2′(1′H)-one] | > 50 | 138 to 140 |  | 1000 to 10000 |
| CC(C)OCCCNC(=O)CN1C(=O)C2(COc3cc4c(cc32)CCO4)c2ccccc21 (stereo not drawn) [Example 12.50, N-[3-(1-methylethoxy)propyl]-2-(2′-oxo-5,6-dihydrospiro[benzo[1,2-b:5,4-b′]difuran-3,3′-indol]-1′(2′H)-yl)acetamide] | > 50 | 149 to 151 | 100 to 1000 |  |
| O=C1N(C[C@H]2COCCO2)c2ccccc2C12COc1cc3c(cc12)OCO3 (stereo partly drawn) [Example 8, 1′-[(2S)-1,4-dioxan-2-ylmethyl]spiro[furo[2,3-f][1,3]benzodioxole-7,3′-indol]-2′(1′H)-one] | > 50 | 147 to 149 |  | 1 to 100 |
| CC(C)c1ncc(CN2C(=O)C3(COc4cc5c(cc43)OCO5)c3ccccc32)o1 (stereo not drawn) [Example 4.77, 1′-[(2-isopropyl-1,3-oxazol-5-yl)methyl]spiro[furo[2,3-f][1,3]benzodioxole-7,3′-indol]-2′(1′H)-one] | > 50 | 75 to 77 |  | 1 to 100 |
| O=C1N(Cc2ccccn2)c2ccccc2C12COc1c(Cl)cc3c(c12)OCCO3 (stereo not drawn) [Example 4.126, 6-chloro-1′-(pyridin-2-ylmethyl)-2,3-dihydrospiro[furo[3,2-f][1,4]benzodioxine-9,3′-indol]-2′(1′H)-one] | > 50 | 197 to 199 |  | 1000 to 10000 |
| COc1cc2c(cc1F)C1(CO2)C(=O)N(Cc2ccccc2)c2ccccc21 (stereo not drawn) [Example 4.67, 1′-benzyl-5-fluoro-6-methoxyspiro[1-benzofuran-3,3′-indol]-2′(1′H)-one] | < 50 | 160 to 162 |  | 100 to 1000 |
| C[C@@H](CN1C(=O)C2(COc3cc4c(cc32)CCO4)c2ccccc21)OCc1ccc(F)cc1 (stereo partly drawn) [Example 14.2, 1′-{(2S)-2-[(4-fluorobenzyl)oxy]propyl}-5,6-dihydrospiro[benzo[1,2-b:5,4-b′]difuran-3,3′-indol]-2′(1′H)-one] | > 50 | 55 to 60 | 100 to 1000 |  |
| Cc1nc2cc3c(cc2o1)C1(CO3)C(=O)N(C[C@H]2CCCO2)c2ccccc21 (stereo partly drawn) [Example 4.58, 2-methyl-1′-[(2R)-tetrahydrofuran-2-ylmethyl]spiro[furo[2,3-f][1,3]benzoxazole-7,3′-indol]-2′(1′H)-one] | < 50 | 188 to 190 |  | 1000 to 10000 |
| O=C(c1ccccc1CN1C(=O)C2(COc3cc4c(cc32)CCO4)c2ccccc21)N1CCCCC1 (stereo not drawn) [Example 12.17, 1′-[2-(piperidin-1-ylcarbonyl)benzyl]-5,6-dihydrospiro[benzo[1,2-b:5,4-b′]difuran-3,3′-indol]-2′(1′H)-one] | > 50 | 168 to 170 | 1000 to 10000 |  |
| CCOC(=O)N1C(=O)C2(COc3cc4c(cc32)OCCO4)c2ccccc21 (stereo not drawn) [Example 18, ethyl 2′-oxo-2,3-dihydrospiro[furo[2,3-g][1,4]benzodioxine-8,3′-indole]-1′(2′H)-carboxylate] | < 50 | 198 to 200 | 1 to 100 |  |
| CN(C)c1ccc(CN2C(=O)C3(COc4cc5c(cc43)OCCO5)c3ccccc32)cn1 (stereo not drawn) [Example 32.1, 1′-{[6-(dimethylamino)pyridin-3-yl]methyl}-2,3-dihydrospiro[furo[2,3-g][1,4]benzodioxine-8,3′-indol]-2′(1′H)-one] | < 50 | 93 to 95 | 1 to 100 |  |
| COc1cc(OC)nc(CN2C(=O)C3(COc4cc5c(cc43)OCCO5)c3ccccc32)n1 (stereo not drawn) [Example 5.33, 1′-[(4,6-dimethoxypyrimidin-2-yl)methyl]-2,3-dihydrospiro[furo[2,3-g][1,4]benzodioxine-8,3′-indol]-2′(1′H)-one] | > 50 | 169 to 170 |  | 1 to 100 |
| COc1ccc2c(c1OC)C1(COc3cc4c(cc31)OCCO4)C(=O)N2Cc1ccc(C(F)(F)F)o1 (stereo not drawn) [Example 2.63, 4′,5′-dimethoxy-1′-{[5-(trifluoromethyl)furan-2-yl]methyl}-2,3-dihydrospiro[furo[2,3-g][1,4]benzodioxine-8,3′-indol]-2′(1′H)-one] | > 50 | 62 to 65 |  | 100 to 1000 |
| O=C1N(Cc2ccc(F)cn2)c2ccccc2C12COc1cc3c(cc12)OCCO3 (stereo not drawn) [Example 4.100, 1-[(5-fluoropyridin-2-yl)methyl]-2,3-dihydrospiro[furo[2,3-g][1,4]benzodioxine-8,3′-indol]-2′(1′H)-one] | < 50 | 174 to 176 |  | 1 to 100 |
| Cc1noc(-c2ccc(CN3C(=O)C4(COc5cc6c(cc54)OCCO6)c4ccccc43)cc2)n1 (stereo not drawn) [Example 30, 1′-[4(3-methyl-1,2,4-oxadiazol-5-yl)benzyl]-2,3-dihydrospiro[furo[2,3-g][1,4]benzodioxine-8,3′-indol]-2′(1′H)-one] | < 50 | 177 to 178 | 1 to 100 |  |
| COc1ncc(CN2C(=O)C3(COc4cc5c(cc43)OCO5)c3ccccc32)s1 (stereo not drawn) [Example 11.4, 1′-[(2-methoxy-1,3-thiazol-5-yl)methyl]spiro[furo[2,3-f][1,3]benzodioxole-7,3′-indol]-2′(1′H)-one] | > 50 | 164 to 166 | 1 to 100 |  |
| O=C1N(Cc2ncccc2C(F)(F)F)c2ccccc2C12COc1ccc3nonc3c12 (stereo not drawn) [Example 11.107, 1′-{[3-(trifluoromethyl)pyridin-2-yl]methyl}spiro[furo[3,2-e][2,1,3]benzoxadiazole-8,3′-indol]-2′(1′H)-one] | > 50 | 212 to 215 | 1000 to 10000 |  |
| Cn1nc(C(F)(F)F)c(CN2C(=O)C3(COc4cc5c(cc43)OCO5)c3ccccc32)c1Cl (stereo not drawn) [Example 1.16, 1′-{[5-chloro-1-methyl-3-(trifluoromethyl)-1H-pyrazol-4-yl]methyl}spiro[furo[2,3-f][1,3]benzodioxole-7,3′-indol]-2′(1′H)-one] | > 50 | 180 to 182 |  | 1 to 100 |
